Experimental data taken from US10287267B2, “Isoquinolin-3-yl carboxamides and preparation and use thereof” (Samumed, LLC, priority 2016, dated 2019).

Key:
[1] = tested on: Wnt pathway (Sp5-Luc reporter, TCF/LEF binding sites) in SW480 colon carcinoma cells; assay: Screening assay for Wnt activity: Sp5-Luc reporter gene assay; type: cell-based, human; conditions: Homo sapiens; for EC50: Sp5-Luc reporter, SW480 cells, 36 to 48 hours; for inhibition at 10 µM: SW480, read-out: percent inhibition at 10 μM;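 as to all read-outs here: firefly luciferase luminescence read in stably transduced SW480 cells carrying the Sp5 promoter reporter with eight TCF/LEF sites, compounds given in 0.1% DMSO final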
Method: The screening assay for Wnt activity is described as follows.
Following incubation, 15 μl of BriteLite Plus luminescence reagent (Perkin Elmer) was added to each well of the 384-well assay plates. The plates were placed on an orbital shaker for 2 min and then luminescence was quantified using the Envision (Perkin Elmer) plate reader.

[2] = molecular target: recombinant DYRK1A kinase (Homo sapiens (Human), UniProt Q13627); assay: DYRK1A kinase assay (Ser/Thr 18 peptide Z-lyte FRET); type: biochemical; conditions: 30 μM ATP, 1 h room temperature;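 also: Read-out is the coumarin to fluorescein emission ratio, referenced to unphosphorylated (0%) and phosphorylated (100%) Ser/Thr 18 peptide controls, values from dose-response curves by non-linear regression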
recombinant GSK3β kinase = recombinant GSK3β kinase (Homo sapiens (Human), UniProt P49841); assay: GSK3β kinase assay (Ser/Thr 09 peptide Z-lyte FRET); type: biochemical; conditions: 46 μM ATP, 1 h room temperature;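 also: kinase activity read as coumarin to fluorescein emission ratio, 11-point threefold dilutions from 10 µM to 0.0003 µM in duplicate, unphosphorylated and phosphorylated peptide as 0% and 100% controls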
Sequence of recombinant GSK3β kinase (P49841 whole entry): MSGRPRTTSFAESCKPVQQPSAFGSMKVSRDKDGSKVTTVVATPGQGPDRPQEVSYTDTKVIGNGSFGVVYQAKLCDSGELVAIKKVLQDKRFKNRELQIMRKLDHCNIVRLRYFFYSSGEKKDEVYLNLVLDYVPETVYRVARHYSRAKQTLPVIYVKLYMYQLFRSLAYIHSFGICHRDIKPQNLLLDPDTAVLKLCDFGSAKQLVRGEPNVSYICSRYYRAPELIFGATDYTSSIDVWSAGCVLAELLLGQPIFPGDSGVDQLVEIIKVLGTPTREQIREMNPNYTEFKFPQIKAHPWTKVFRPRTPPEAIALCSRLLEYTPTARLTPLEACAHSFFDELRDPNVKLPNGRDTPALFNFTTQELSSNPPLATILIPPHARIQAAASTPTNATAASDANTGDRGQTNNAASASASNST

[3] = tested on: Tau phosphorylation at Ser396 (pSer396); assay: Tau phosphorylation assay (pSer396 ELISA / western blot) in SH-SY5Y cells; type: cell-based, human; conditions: Homo sapiens; SH-SY5Y cells, overnight (16-18 h) exposure; read-out: pSer396 Tau EC50;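 also: EC50 for reduction of Tau pSer396 in lysed cells, measured by colorimetric ELISA or chemiluminescent western blot, both using the same pSer396 antibody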
Method: Two days before treatment, cells were seeded onto 96 well plates at 5×10^4 cells/well.
Wells were visually checked for cell death or change in morphology and supernatants were tested for cytotoxicity by measurement of lactate dehydrogenase release (LDH, CytoToxOne kit, Promega) if necessary.
Cells were lysed with RIPA buffer complemented with phosphatase and protease inhibitors then lysates were spun down at 12,000 g for 10 min to remove any cellular debris. Lysates are then either directly tested for pSer396 by ELISA (Life Technology, Kit KHB7031) or loaded on NuPage Bis-Tris gels for western blot analysis. Colorimetric detection of ELISA signal is performed by Cytation3 plate reader (Biotek) and the chemiluminescence signal for HRP-linked antibodies used in western blotting is detected using a Carestream Image Station. The same pSer396 antibody is used for detection of pTau in both assays.

[4] = tested on: SW480 colon carcinoma cells; assay: Cell viability assay (CellTiter-Glo); type: cell-based, human; conditions: Homo sapiens; for EC50: 96 h, SW480 cells, CellTiter-Glo, four days incubation; for inhibition at 10 µM: SW480, read-out: percent inhibition at 10 μM
[5] = tested on: α-smooth muscle actin (αSMA) positive LL29 cells; assay: Inhibition of fibrotic process: αSMA in TGF-β1 treated primary human fibroblasts from IPF patients; type: cell-based; conditions: Homo sapiens, Fibroblast; for EC50: 96 h, Table 8, LL29 fibroblasts from IPF patients, TGF-β1 20 ng/mL, 4 days, dose-response 10 μM to 0.94 nM; for inhibition at 10 µM: read-out: percent value in parentheses beside EC50 >10 μM;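 as to all read-outs here: controls were TGF-β1 stimulated wells with DMSO vehicle (positive) and cells given DMSO alone (negative), cultured in F12 medium with 1% fetal bovine serum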
IL-6 = IL-6 inhibition in LPS-stimulated human peripheral blood mononuclear cells (HTRF); type: cell-based; conditions: Homo sapiens, PBMC; for inhibition at 10 µM: read-out: percent value in parentheses beside EC50 >10 μM; for EC50: Table 9, huPBMCs, LPS 50 ng/mL, 22 hours, dose-response starting from 10 μM;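 as to all read-outs here: IL-6 detected by HTRF with an XL665- and Cryptate-labelled anti-IL-6 antibody pair, samples run in duplicate, EC50 obtained from a four-parameter Levenberg-Marquardt curve fit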
Method: After 22 hour incubation, a mixture of anti-IL6 XL665 and anti-IL-6 Cryptate diluted in reconstitution buffer (Catalog #62IL6PEC, Cisbio Inc., Bedford, Mass.) was added to each well. […] All samples were processed in duplicate. […] EC50 was determined using software generated by Dotmatics Limited (Windhill Bishops Stortford Herts, UK) using the Levenberg-Marquardt 4 parameter fitting procedure with finite different gradients.

Compound	EC50 [1] [µM]	EC50 [2] [µM]	EC50 (recombinant GSK3β kinase) [µM]	EC50 [3] [µM]	EC50 [4] [µM]	inhibition at 10 µM [4] [%]	EC50 [5] [µM]	inhibition at 10 µM (IL-6) [%]	EC50 (IL-6) [µM]	inhibition at 10 µM [5] [%]	inhibition at 10 µM [1] [%]
Cc1nnc(-c2ccc3cnc(NC(=O)CN4CCN(C)CC4)cc3c2)s1 [Compound 946, N-(6-(5-Methyl-1,3,4-thiadiazol-2-yl)isoquinolin-3-yl)-2-(4-methylpiperazin-1-yl)acetamide]	1.88	0.023	0.038	0.571	> 10	42.6	0.97	18.2	> 10		
Cc1nnc(-c2ccc3cnc(NC(=O)CN4CCOCC4)cc3c2)s1 [Compound 952, N-(6-(5-Methyl-1,3,4-thiadiazol-2-yl)isoquinolin-3-yl)-2-morpholinoacetamide]	1.47	0.0072	0.008	0.269	7.09		0.741	10.1	> 10		
Cc1nnc(-c2ccc3cnc(NC(=O)CN4C[C@H]5C[C@@H]4CO5)cc3c2)s1 [Compound 960, 2-((1R,4R)-2-Oxa-5-azabicyclo[2.2.1]heptan-5-yl)-N-(6-(5-methyl-1,3,4-thiadiazol-2-yl)isoquinolin-3-yl)acetamide]	1.66	0.0171	0.015	0.233	6.67		0.957	8.2	> 10		
Cc1nnc(-c2cc(F)c3cnc(NC(=O)CN4CCOCC4)cc3c2)s1 [Compound 963, N-(8-Fluoro-6-(5-methyl-1,3,4-thiadiazol-2-yl)isoquinolin-3-yl)-2-morpholinoacetamide]	1.2	0.0267	0.006	0.252	> 10	49.2	1.19	8.2	> 10		
Cn1cc(-c2ccc3cnc(NC(=O)C4CCN(S(=O)(=O)c5ccccc5)CC4)cc3c2)cn1 [Compound 964, N-(6-(1-Methyl-1H-pyrazol-4-yl)isoquinolin-3-yl)-1-(phenylsulfonyl) piperidine-4-carboxamide]	1.45	0.0052	0.102	0.576	3.83		> 10	6.8	> 10	19.7	
[2H]C([2H])([2H])N1CCN(CC(=O)Nc2cc3cc(-c4cnn(C)c4)ccc3cn2)CC1 [Compound 965, N-(6-(1-Methyl-1H-pyrazol-4-yl)isoquinolin-3-yl)-2-(4-(methyl-d3)piperazin-1-yl)acetamide]	3.18	0.0106	0.079	1	8.63		1.37		3.26		
CCN1CCC(C(=O)Nc2cc3cc(-c4cnn(C)c4)c(F)cc3cn2)CC1 [Compound 967, 1-Ethyl-N-(7-fluoro-6-(1-methyl-1H-pyrazol-4-yl)isoquinolin-3-yl) piperidine-4-carboxamide]	4.42	0.0019	0.046	0.373	0.459		0.079		1.13		
CN1CCN(CC(=O)Nc2cc3cc(-c4cnn(C)c4)cc(F)c3cn2)CC1 [Compound 968, N-(8-Fluoro-6-(1-methyl-1H-pyrazol-4-yl)isoquinolin-3-yl)-2-(4-methylpiperazin-1-yl)acetamide]	> 10	0.0314	0.061	2.7	> 10	14.5	> 10		9.24	24.1	38
CN1CCC(C(=O)Nc2cc3cc(-c4cnsc4)ccc3cn2)CC1 [Compound 970, N-(6-(Isothiazol-4-yl)isoquinolin-3-yl)-1-methylpiperidine-4-carboxamide]	1.36	0.0023	0.478	0.862	1.26		1.24		1.13		
[2H]C([2H])([2H])n1cc(-c2ccc3cnc(NC(=O)[C@H](C)N4CCCC4)cc3c2)cn1 [Compound 971, (S)—N-(6-(1-(methyl-d3)-1H-pyrazol-4-yl)isoquinolin-3-yl)-2-(pyrrolidin-1-yl)propanamide]	0.72	0.0342	0.034	0.191	1.2		0.866		1.22		
O=C(Nc1cc2cc(-c3cnco3)ccc2cn1)C1CC1 [Compound 973, N-(6-(Oxazol-5-yl)isoquinolin-3-yl)cyclopropanecarboxamide]	0.609	0.0029	0.02	0.102	0.391		0.134		0.395		
O=C(Nc1cc2cc(-c3cnco3)ccc2cn1)[C@H]1CCCO1 [Compound 974, (R)—N-(6-(Oxazol-5-yl)isoquinolin-3-yl)tetrahydrofuran-2-carboxamide]	3.74	0.0135	0.096	2	3.16		> 10	45.9	> 10	49.6	
O=C(Nc1cc2cc(-c3cnco3)ccc2cn1)[C@@H]1CCCNC1 [Compound 975, (R)—N-(6-(Oxazol-5-yl)isoquinolin-3-yl)piperidine-3-carboxamide]	0.423	0.012	1.09	4.6	0.334		0.138		0.425		
O=C(Nc1cc2cc(-c3cnco3)ccc2cn1)C1CCN(C(=O)CN2CCCC2)CC1 [Compound 977, N-(6-(Oxazol-5-yl)isoquinolin-3-yl)-1-(2-(pyrrolidin-1-yl)acetyl)piperidine-4-carboxamide]	0.875	0.0032	0.246	0.426	0.615		0.136		0.404		
CN1CCC(N2CCC(C(=O)Nc3cc4cc(-c5cnco5)ccc4cn3)CC2)CC1 [Compound 978, 1′-Methyl-N-(6-(oxazol-5-yl)isoquinolin-3-yl)-[1,4′-bipiperidine]-4-carboxamide]	2.22	0.0039	0.22	0.274	1.58		0.722		3.36		
O=C(Nc1cc2cc(-c3cnco3)ccc2cn1)[C@H]1CC[C@@H](N2CCOCC2)CC1 [Compound 979, cis-4-Morpholino-N-(6-(oxazol-5-yl)isoquinolin-3-yl)cyclohexane-1-carboxamide]	4.09	0.01	0.791	0.569	2.22		1.03		4.3		
CN(CC(=O)Nc1cc2cc(-c3cnco3)ccc2cn1)C1CCC1 [Compound 980, 2-(Cyclobutyl(methyl)amino)-N-(6-(oxazol-5-yl)isoquinolin-3-yl)acetamide]	> 10	0.0191	0.389	2.1	5.74		> 10		3.68	40.3	40.5
O=C(CN1CCCC1)Nc1cc2cc(-c3cnco3)ccc2cn1 [Compound 981, N-(6-(Oxazol-5-yl)isoquinolin-3-yl)-2-(pyrrolidin-1-yl)acetamide]	1.08	0.0137	0.141	1.1	0.546		0.605		1.1		
C[C@@H]1CCCN1CC(=O)Nc1cc2cc(-c3cnco3)ccc2cn1 [Compound 982, (R)-2-(2-Methylpyrrolidin-1-yl)-N-(6-(oxazol-5-yl)isoquinolin-3-yl) acetamide]	2.71	0.0192	0.265	1.1	1.21		0.767		2.79		
CN1CCN(CC(=O)Nc2cc3cc(-c4cnco4)ccc3cn2)CC1 [Compound 983, 2-(4-Methylpiperazin-1-yl)-N-(6-(oxazol-5-yl)isoquinolin-3-yl)acetamide]	5.53	0.0223	0.303	1.5	4.62		0.679	9.1	> 10		
Cn1ncc(-c2ccc3cnc(NC(=O)C4CCOCC4)cc3c2)c1CO [Compound 984, N-(6-(5-(Hydroxymethyl)-1-methyl-1H-pyrazol-4-yl)isoquinolin-3-yl) tetrahydro-2H-pyran-4-carboxamide]	2.99	0.0055	0.236	2.1	3.13		1.24		8.76		
